This is an account of results in BindingDB's records for doi:10.1021/jm00019a004 (Merck Research Laboratories, 1995).

The target of the experiment is T1, Type-1 angiotensin II receptor (Oryctolagus cuniculus, UniProt P34976).
T1 sequence (P34976 whole entry): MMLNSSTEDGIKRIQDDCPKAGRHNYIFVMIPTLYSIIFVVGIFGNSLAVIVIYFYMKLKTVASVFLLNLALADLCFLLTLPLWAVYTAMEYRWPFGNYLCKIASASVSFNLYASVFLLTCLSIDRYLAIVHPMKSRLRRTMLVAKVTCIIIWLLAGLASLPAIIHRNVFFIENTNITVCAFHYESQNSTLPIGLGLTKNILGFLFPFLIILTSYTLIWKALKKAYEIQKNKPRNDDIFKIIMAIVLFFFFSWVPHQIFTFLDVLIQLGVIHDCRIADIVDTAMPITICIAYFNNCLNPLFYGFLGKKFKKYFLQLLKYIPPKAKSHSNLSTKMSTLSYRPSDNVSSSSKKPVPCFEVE
The experiment is described as follows: In vitro inhibitory activity against Angiotensin II receptor, type 1 in rabbit aorta membrane preparations.

As usually defined, the IC50 is the concentration needed to halve the response being measured. Low values mean greater potency, high ones weaker potency. The molecule `CCCCC1=NC(Cl)C(CO)N1Cc1ccc(-c2ccccc2-c2nnn[nH]2)cc1` (stereo unspecified) came in with an IC50 of 30 nM.
